From patent US12139459B2, “Enhancer of fertilization function of sperm” (TOHOKU UNIVERSITY, priority 2018, dated 2024) come the findings set out here.

Usually melting point stands for the temperature, or range, at which the solid turns liquid.

For series [1], the system named is sperms of male C57/B6 mice (fertilization function of a mammal sperm). Put plainly: Semination by in vitro fertilization with sperms precultured in test culture medium; two-cell egg formation. Format: cell-based.

In turn, `O=C(CC(C(=O)O)c1c[nH]c2ccc(F)cc12)c1ccc(F)cc1F` (centres unmarked) came in with a melting point of 207 to 208 °C.

Turning to `O=C(CC(C(=O)O)c1c[nH]c2cccc(Cl)c12)c1ccc(F)cc1F` (centres unmarked) [(2-1), 2-(4-chloro-1H-indol-3-yl)-4-(2,4-difluorophenyl)-4-oxo-butanoic Acid], the melting point lay within 203 to 204 °C.

In the case of `O=C(CC(C(=O)O)c1c[nH]c2ccc(Cl)cc12)c1ccc(F)cc1F` (centres unmarked) [(3-2), 2-(5-chloro-1H-indol-3-yl)-4-(2,4-difluorophenyl)-4-oxo-butanoic Acid], the melting point lay within 236 to 239 °C.

Take `Cc1ccc2[nH]cc(C(CC(=O)c3ccc(F)cc3F)C(=O)O)c2c1` (centres unmarked) [(3-3), 4-(2,4-difluorophenyl)-2-(5-methyl-1H-indol-3-yl)-4-oxo-butanoic Acid]: the melting point lay within 200 to 202 °C.

As to `COc1ccc2[nH]cc(C(CC(=O)c3ccc(F)cc3F)C(=O)O)c2c1` (centres unmarked) [(3-4), 4-(2,4-difluorophenyl)-2-(5-methoxy-1H-indol-3-yl)-4-oxo-butanoic Acid], the melting point was in the range of 205 to 206 °C.

The compound `O=C(CC(C(=O)O)c1c[nH]c2cc(OCc3ccccc3)ccc12)c1ccc(F)cc1F` (centres unmarked) [(4-2), 2-(6-benzyloxy-1H-indol-3-yl)-4-(2,4-difluorophenyl)-4-oxo-butanoic Acid] registered a melting point of 177 to 178 °C.

On to `O=C(CC(C(=O)O)c1c[nH]c2c(Cl)cccc12)c1ccc(F)cc1F` (centres unmarked) [(5-1), 2-(7-chloro-1H-indol-3-yl)-4-(2,4-difluorophenyl)-4-oxo-butanoic Acid], for which the melting point lay in the range of 225 to 227 °C.

`COc1cccc2c(C(CC(=O)c3ccc(F)cc3F)C(=O)O)c[nH]c12` (centres unmarked) [(5-2), 4-(2,4-difluorophenyl)-2-(7-methoxy-1H-indol-3-yl)-4-oxo-butanoic Acid] had a melting point of 181 to 183 °C.

`Cn1cc(C(CC(=O)c2ccc(F)cc2F)C(=O)O)c2ccccc21` (centres unmarked) [(6-1), 4-(2,4-difluorophenyl)-2-(1-methyl-1H-indol-3-yl)-4-oxo-butanoic Acid] had a melting point of 192 to 193 °C.

As for `O=C(CC(C(=O)O)c1c[nH]c2ccccc12)c1ccc(F)cc1F` (centres unmarked) [Compound #5, 4-(2,4-Difluorophenyl)-2-(1H-indol-3-yl)-4-oxo-butanoic Acid], the “The number of two-cell eggs” value in series [1] (sperms precultured 1 hour in TYH culture medium containing 1 μM compound #5, 11 ova) amounted to 11; in series [1] (sperms precultured 1 hour in TYH culture medium containing 10 μM FCCP and 1 μM compound #5, 10 ova) it was 5. In addition, the “Fertilization rate (%)” value in series [1] (sperms precultured 1 hour in TYH culture medium containing 1 μM compound #5, two-cell eggs observed 24 to 28 hours after semination, control without compound 40%) was found to be 100%; in series [1] (sperms precultured 1 hour in TYH culture medium containing 10 μM FCCP and 1 μM compound #5, FCCP alone 30%), 50%.

With `CCCn1cc(C(CC(=O)c2ccc(C)cc2C)C(=O)O)c2ccccc21` (centres unmarked) [Compound #6, 4-(2,4-Dimethylphenyl)-2-(1-propyl-1H-indol-3-yl)-4-oxo-butanoic Acid], the melting point lay in the range of 139 to 141 °C.

`O=C(CC(C(=O)O)c1c[nH]c2ccccc12)c1ccccc1` (centres unmarked) [Compound #20, 4-Phenyl-2-(1H-indol-3-yl)-4-oxo-butanoic Acid] gave a melting point of 149 to 150 °C.

`CCCCOc1ccc2cccc(CC(=O)O)c2c1` [Compound #33, α-(7-Butoxy-1-naphthalenyl)-acetic Acid] yielded a melting point of 102 to 104 °C.

`CCCCCOc1ccc2cccc(CC(=O)O)c2c1` [Compound #34, α-(7-Pentoxy-1-naphthalenyl)-acetic Acid] showed a melting point of 104 to 106 °C.

The compound `CCOc1ccc2[nH]cc(CC(=O)O)c2c1` [Compound #37, 5-Ethoxy-3-indoleacetic Acid] had a melting point of 86 to 92.7 °C.

`CCCOc1ccc2[nH]cc(CC(=O)O)c2c1` [Compound #38, 5-(1-Propoxy)-3-indoleacetic Acid] showed a melting point of 133.6 to 136.8 °C.

For the compound `CCCCOc1ccc2[nH]cc(CC(=O)O)c2c1` [Compound #39, 5-(1-Butoxy)-3-indoleacetic Acid], the melting point lay within 137.8 to 141.1 °C.

`O=C(CC(C(=O)O)c1c[nH]c2cc(F)ccc12)c1ccc(F)cc1F` (centres unmarked) [Compound (4-1), 4-(2,4-difluorophenyl)-2-(6-fluoro-1H-indol-3-yl)-4-oxo-butanoic Acid]: the melting point was in the range of 210 to 214 °C.

As to `N#CC(C#N)=NNc1ccc(OC(F)(F)F)cc1` [FCCP, carbonyl cyanide-p-trifluoromethoxyphenylhydrazone, reference compound], in series [1] (sperms precultured 1 hour in TYH culture medium containing 10 μM FCCP (uncoupler), control without FCCP 47.4%), the “Fertilization rate (%)” value came to 30%. Moreover, the “The number of two-cell eggs” value in series [1] (sperms precultured 1 hour in TYH culture medium containing 10 μM FCCP, 10 ova) is 3.
